Tests used:
[1] = Compound cytotoxicity, XTT-based colorimetric assay; format: cell-based; settings: human; uninfected MT2 cells, day 4, XTT
Experimental: Compound cytotoxicity and the corresponding CC50 values were determined using the same protocol as described in the antiviral assay except that uninfected cells were used. Cytotoxicity was assessed on day 4 in uninfected MT2 cells by using a XTT (2,3-bis[2-Methoxy-4-nitro-5-sulfophenyl]-2H-tetrazolium-5-carboxyanilide inner salt)-based colorimetric assay (Sigma-Aldrich, St Louis, Mo).

[2] = tested on: recombinant NL4-3 virus (nef section replaced with Renilla luciferase gene) in MT-2 cells; experiment: HIV cell culture assay (antiviral activity, luciferase readout in infected MT-2 cells); format: cell-based; settings: NL43
Experimental: HIV cell culture assay—MT-2 cells, 293T cells and the proviral DNA clone of NL4-3 virus were obtained from the NIH AIDS Research and Reference Reagent Program. MT-2 cells were propagated in RPMI 1640 media supplemented with 10% heat inactivated fetal bovine serum (FBS), […]. The 293T cells were propagated in DMEM media supplemented with 10% heat inactivated FBS, […]. A recombinant NL4-3 proviral clone, in which a section of the nef gene was replaced with the Renilla luciferase gene, was used to make the reference virus used in these studies. The recombinant virus was prepared through transfection of the recombinant NL4-3 proviral clone into 293T cells using Transit-293 Transfection Reagent from Minis Bio LLC (Madison, Wis.). Supernatent was harvested after 2-3 days and the amount of virus present was titered in MT-2 cells using luciferase enzyme activity as a marker by measuring luciferase enzyme activity. Luciferase was quantitated using the EnduRen Live Cell Substrate from Promega (Madison, Wis.). Antiviral activities of compounds toward the recombinant virus were quantified by measuring luciferase activity in MT-2 cells infected for 4-5 days with the recombinant virus in the presence of serial dilutions of the compound.
The 50% effective concentration (EC5o) was calculated by using the exponential form of the median effect equation where (Fa)=1/[1+(ED50/drug conc.)m] (Johnson Va., Byington R T. Infectivity Assay. In Techniques in HIV Research. ed. Aldovini A, Walker B D. 71-76. New York: Stockton Press.1990). The 50% inhibitory concentration (EC50) was calculated by using the exponential form of the median effect equation where percent inhibition=1/[1 +(EC50/drug concentration)m], where m is a parameter that reflects the slope of the concentration-response curve.

CN1CC=C(c2ccc3c(=O)n(-c4ccc(Cl)c5c(NS(C)(=O)=O)nn(C)c45)c([C@H](Cc4cc(F)cc(F)c4)NC(=O)Cn4nc(C(F)F)c5c4C(F)(F)[C@@H]4C[C@H]54)nc3c2)CC1 (atropisomer, axis not shown; (P)) [Example 13]
CC50 at 4 day [1]: > 1000 nM | EC50 [2]: 0.098 nM

Cn1nc(NS(C)(=O)=O)c2c(Cl)ccc(-n3c([C@H](Cc4cc(F)cc(F)c4)NC(=O)Cn4nc(C(F)F)c5c4C(F)(F)[C@@H]4C[C@H]54)nc4cc(CCC(=O)N5CCOCC5)ccc4c3=O)c21 [Example 1, N—((S)-1-((3P)-3-(4-chloro-1-methyl-3-(methylsulfonamido)-1H-indazol-7-yl)-7-(3-morpholino-3-oxopropyl)-4-oxo-3,4-dihydroquinazolin-2-yl)-2-(3,5-difluorophenyl)ethyl)-2-((3bS,4aR)-3-(difluoromethyl)-5,5-difluoro-3b,4,4a,5-tetrahydro-1H-cyclopropa[3,4]cyclopenta[1,2-c]pyrazol-1-yl)acetamide]
CC50 at 4 day [1]: > 1000 nM | EC50 [2]: 0.096 nM

Cn1nc(NS(C)(=O)=O)c2c(Cl)ccc(-n3c([C@H](Cc4cc(F)cc(F)c4)NC(=O)Cn4nc(C(F)F)c5c4C(F)(F)[C@@H]4C[C@H]54)nc4cc(C5=CCOCC5)ccc4c3=O)c21 (atropisomer, axis not shown; (P)) [Example 9, N—((S)-1-((3P)-3-(4-chloro-1-methyl-3-(methylsulfonamido)-1H-indazol-7-yl)-7-(3,6-dihydro-2H-pyran-4-yl)-4-oxo-3,4-dihydroquinazolin-2-yl)-2-(3,5-difluorophenyl)ethyl)-2-((3bS,4aR)-3-(difluoromethyl)-5,5-difluoro-3b,4,4a,5-tetrahydro-1H-cyclopropa[3,4]cyclopenta[1,2-c]pyrazol-1-yl)acetamide]
CC50 at 4 day [1]: > 1000 nM | EC50 [2]: 0.064 nM

CS(=O)(=O)Nc1nn(CC(F)F)c2c(-n3c([C@H](Cc4cc(F)cc(F)c4)NC(=O)Cn4nc(C(F)F)c5c4C(F)(F)[C@@H]4C[C@H]54)nc4cc(C5=CCOCC5)ccc4c3=O)ccc(Cl)c12 (atropisomer, axis not shown; (P)) [Example 15, N—((S)-1-((3P)-3-(4-chloro-1-(2,2-difluoroethyl)-3-(methylsulfonamido)-1H-indazol-7-yl)-7-(3,6-dihydro-2H-pyran-4-yl)-4-oxo-3,4-dihydroquinazolin-2-yl)-2-(3,5-difluorophenyl)ethyl)-2-((3bS,4aR)-3-(difluoromethyl)-5,5-difluoro-3b,4,4a,5-tetrahydro-1H-cyclopropal3,41cyclopenta[1,2-c]pyrazol-1-yl)acetamide]
CC50 at 4 day [1]: > 500 nM | EC50 [2]: 0.094 nM

— patent publication US20210393633A1, “INHIBITORS OF HUMAN IMMUNODEFICIENCY VIRUS REPLICATION” (ViiV HEALTHCARE UK (NO.5) LIMITED, priority 2018, published 2021)
